Results as given in patent US10166216B2 (Rigel Pharmaceuticals, Inc., priority 2006, dated 2019).

Biological target: Axl (Homo sapiens (Human), UniProt P30530)
Assay: Phospho-Akt in-cell Western assay (Axl-antibody cross-linking stimulation)
Format: cell-based
Settings: inhibition of Axl activity
Outline: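 HeLa cells on poly-L-lysine, starved 24 hrs with Axl/Fc, pre-treated with compound 1 hr at 37° C., then stimulated 5 min with Axl primary/secondary antibody cluster. Fixed cells probed for phospho-Akt by chemiluminescent in-cell Western; signal normalized to crystal violet cell number.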

[1] = Hela cells, phospho-Akt readout, Table 7, formula (Ia4)
[2] = phospho-Akt in-cell Western assay

Sequence of Axl (P30530 26-894): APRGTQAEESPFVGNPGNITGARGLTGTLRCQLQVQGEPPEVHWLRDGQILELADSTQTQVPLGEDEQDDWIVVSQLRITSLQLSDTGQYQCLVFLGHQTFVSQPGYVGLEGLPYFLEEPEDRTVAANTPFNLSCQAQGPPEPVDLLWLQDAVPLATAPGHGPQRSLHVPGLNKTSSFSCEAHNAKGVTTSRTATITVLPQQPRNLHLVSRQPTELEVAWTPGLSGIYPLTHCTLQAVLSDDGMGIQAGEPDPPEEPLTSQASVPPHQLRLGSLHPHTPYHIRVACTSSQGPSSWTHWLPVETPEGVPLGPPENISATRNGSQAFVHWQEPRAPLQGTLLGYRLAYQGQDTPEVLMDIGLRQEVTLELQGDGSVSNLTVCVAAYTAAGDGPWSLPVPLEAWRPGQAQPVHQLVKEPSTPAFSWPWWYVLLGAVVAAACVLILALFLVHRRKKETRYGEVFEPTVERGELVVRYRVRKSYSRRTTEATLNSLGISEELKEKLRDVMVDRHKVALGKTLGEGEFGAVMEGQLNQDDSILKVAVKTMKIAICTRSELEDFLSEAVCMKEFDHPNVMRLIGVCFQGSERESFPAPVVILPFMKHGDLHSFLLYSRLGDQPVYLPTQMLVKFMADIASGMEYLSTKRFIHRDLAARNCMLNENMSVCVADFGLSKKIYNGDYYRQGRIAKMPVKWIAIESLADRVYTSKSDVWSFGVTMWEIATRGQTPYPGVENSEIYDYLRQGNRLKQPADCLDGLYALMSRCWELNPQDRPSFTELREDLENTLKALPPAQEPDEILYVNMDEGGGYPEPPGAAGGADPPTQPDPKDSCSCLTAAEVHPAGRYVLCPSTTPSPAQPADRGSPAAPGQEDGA

| Compound | IC50 [1] | IC50 [2] |
| --- | --- | --- |
| Cc1csc2c(-n3nc(Nc4ccc5c(c4)CCC(NC4CC6CCC4C6)CC5)nc3N)nc(Cl)nc12 (stereo not shown) [Compound 222, 1-(7-methyl-2-chlorothieno[3,2-d]pyrimidin-4-yl)-N^3-(7-(N-bicyclo[2.2.1]heptan-2-yl)amino-6,7,8,9-tetrahydro-5H-benzo[7]annulene-2-yl)-1H-1,2,4-triazole-3,5-diamine] | < 1 µM |  |
| COc1cc2ncnc(-n3nc(Nc4ccc5c(c4)CCC(NC4CC6CCC4C6)CC5)nc3N)c2cc1OC (stereo not shown) [Compound 223, 1-(6,7-dimethoxyquinazolin-4-yl)-N^3-(7-(N-bicyclo[2.2.1]heptan-2-yl)amino-6,7,8,9-tetrahydro-5H-benzo[7]annulene-2-yl)-1H-1,2,4-triazole-3,5-diamine] | < 1 µM |  |
| Cc1nnc(-n2nc(Nc3ccc(N4CCN([C@H]5C[C@@H]6CC[C@H]5C6)CC4)c(F)c3)nc2N)c2sccc12 [Compound 226, 1-(4-methylthieno[3,2-d]pyridazin-7-yl)-N^3-(3-fluoro-4-(4-((1S,2S,4R)-bicyclo[2.2.1]heptan-2-yl)piperazin-1-yl)phenyl)-1H-1,2,4-triazole-3,5-diamine] |  | < 1 µM |
| COc1cc2c(C)nnc(-n3nc(Nc4ccc(N5CCN([C@H]6C[C@@H]7CC[C@H]6C7)CC5)c(F)c4)nc3N)c2cc1OC [Compound 228, 1-(6,7-dimethoxy-1-methylphthalazin-4-yl)-N^3-(3-fluoro-4-(4-((1S,2S,4R)-bicyclo[2.2.1]heptan-2-yl)piperazin-1-yl)phenyl)-1H-1,2,4-triazole-3,5-diamine] |  | > 20 µM |
| Cc1nnc(-n2nc(Nc3ccc(N4CCN([C@H]5CC6CCC5C6)CC4)c(Cl)c3)nc2N)c2sccc12 (stereo partly shown) [Compound 231, 1-(4-methylthieno[3,2-d]pyridazin-7-yl)-N^3-(3-chloro-4-(4-((2)S-bicyclo[2.2.1]heptan-2-yl)piperazin-1-yl)phenyl)-1H-1,2,4-triazole-3,5-diamine] |  | < 1 µM |
| Cc1cc(Nc2nc(N)n(-c3nnc(C)c4ccsc34)n2)ccc1N1CCN([C@H]2C[C@@H]3CC[C@H]2C3)CC1 [Compound 232, 1-(4-methylthieno[3,2-d]pyridazin-7-yl)-N^3-(3-methyl-4-(4-((1S,2S,4R)-bicyclo[2.2.1]heptan-2-yl)piperazin-1-yl)phenyl)-1H-1,2,4-triazole-3,5-diamine] |  | < 1 µM |
| Cc1csc2c(-n3nc(Nc4ccc(N5CCN(C6CC7CCC6C7)CC5)cc4)nc3N)nc(-c3cccc(C#N)c3)nc12 (stereo not shown) [Compound 234, 1-(7-methyl-2-(3-cyanophenyl)thieno[3,2-d]pyrimidin-4-yl)-N^3-(4-(4-(bicyclo[2.2.1]heptan-2-yl)piperazin-1-yl)phenyl)-1H-1,2,4-triazole-3,5-diamine] |  | < 1 µM |
| Cc1csc2c(-n3nc(Nc4ccc(N5CCN([C@H]6CC7CCC6C7)CC5)cc4)nc3N)nc(-c3ccccc3Cl)nc12 (stereo partly drawn) [Compound 235, 1-(7-methyl-2-(2-chlorophenyl)thieno[3,2-d]pyrimidin-4-yl)-N^3-(4-(4-((2S)-bicyclo[2.2.1]heptan-2-yl)piperazin-1-yl)phenyl)-1H-1,2,4-triazole-3,5-diamine] |  | 1 to 10 µM |

Continued, values first:

| IC50 [1] | IC50 [2] | Compound |
| --- | --- | --- |
| < 1 µM |  | Cc1csc2c(-n3nc(Nc4ccc5c(c4)CCC(N4CCCC4)CC5)nc3N)nc(Cl)nc12 (stereo not shown) [Compound 219, 1-(7-methyl-2-chlorothieno[3,2-d]pyrimidin-4-yl)-N^3-(7-pyrrolidin-1-yl-6,7,8,9-tetrahydro-5H-benzo[7]annulene-2-yl)-1H-1,2,4-triazole-3,5-diamine] |
| < 1 µM |  | COc1cc2ncnc(-n3nc(Nc4ccc5c(c4)CCC(N4CCCC4)CC5)nc3N)c2cc1OC (stereo not shown) [Compound 220, 1-(6,7-dimethoxy-quinazolin-4-yl)-N^3-(7-pyrrolidin-1-yl-6,7,8,9-tetrahydro-5H-benzo[7]annulene-2-yl)-1H-1,2,4-triazole-3,5-diamine] |
| < 1 µM |  | Cc1csc2c(-n3nc(Nc4ccc5c(c4)CCC(N(C)C4CC6CCC4C6)CC5)nc3N)nc(Cl)nc12 (stereo not shown) [Compound 221, 1-(7-methyl-2-chlorothieno[3,2-d]pyrimidin-4-yl)-N^3-(7-(N-methyl-N-bicyclo[2.2.1]heptan-2-yl)amino-6,7,8,9-tetrahydro-5H-benzo[7]annulene-2-yl)-1H-1,2,4-triazole-3,5-diamine] |
| < 1 µM |  | COc1cc2ncnc(-n3nc(Nc4ccc5c(c4)CCC(N(C)C4CC6CCC4C6)CC5)nc3N)c2cc1OC (stereo not shown) [Compound 224, 1-(6,7-dimethoxy-quinazolin-4-yl)-N^3-(7-(N-methyl-N-bicyclo[2.2.1]heptan-2-yl)amino-6,7,8,9-tetrahydro-5H-benzo[7]annulene-2-yl)-1H-1,2,4-triazole-3,5-diamine] |
|  | < 1 µM | Cc1cc(Nc2nc(N)n(-c3nc(Cl)nc4c(C)csc34)n2)ccc1N1CCN(C2CC3CCC2C3)CC1 (stereo not shown) [Compound 225, 1-(7-methyl-2-chlorothieno[3,2-d]pyrimidin-4-yl)-N^3-(3-methyl-4-(4-(bicyclo[2.2.1]heptan-2-yl)piperazin-1-yl)phenyl)-1H-1,2,4-triazole-3,5-diamine] |
|  | 1 to 10 µM | COc1ccc2nc(Cl)c(-n3nc(Nc4ccc(N5CCN([C@H]6C[C@@H]7CC[C@H]6C7)CC5)c(F)c4)nc3N)nc2c1 [Compound 227, 1-(2-chloro-6-methoxy-quinoxalin-3-yl)-N^3-(3-fluoro-4-(4-((1S,2S,4R)-bicyclo[2.2.1]heptan-2-yl)piperazin-1-yl)phenyl)-1H-1,2,4-triazole-3,5-diamine] |
|  | 1 to 10 µM | Nc1nc(Nc2ccc(N3CCN([C@H]4C[C@@H]5CC[C@H]4C5)CC3)c(F)c2)nn1-c1ccc(-c2ccccc2)nn1 [Compound 229, 1-(6-phenylpyridazin-3-yl)-N^3-(3-fluoro-4-(4-((1S,2S,4R)-bicyclo[2.2.1]heptan-2-yl)piperazin-1-yl)phenyl)-1H-1,2,4-triazole-3,5-diamine] |
|  | 1 to 10 µM | Nc1nc(Nc2ccc(N3CCN([C@H]4CC5CCC4C5)CC3)c(F)c2)nn1-c1cc(-c2ccccc2)ccn1 (stereo partly drawn) [Compound 230, 1-(4-phenylpyridin-2-yl)-N^3-(3-fluoro-4-(4-((2S)-bicyclo[2.2.1]heptan-2-yl)piperazin-1-yl)phenyl)-1H-1,2,4-triazole-3,5-diamine] |
|  | > 20 µM | Cc1cccc(-c2nc(-n3nc(Nc4ccc(N5CCN(C6CC7CCC6C7)CC5)cc4)nc3N)c3scc(C)c3n2)c1 (stereo not shown) [Compound 233, 1-(7-methyl-2-m-tolylthieno[3,2-d]pyrimidin-4-yl)-N^3-(4-(4-(bicyclo[2.2.1]heptan-2-yl)piperazin-1-yl)phenyl)-1H-1,2,4-triazole-3,5-diamine] |
|  | > 20 µM | Cc1csc2c(-n3nc(Nc4ccc(N5CCN([C@H]6CC7CCC6C7)CC5)cc4)nc3N)nc(-c3ccc4c(c3)OCO4)nc12 (stereo partly drawn) [Compound 236, 1-(7-methyl-2-benzo[d][1,3]dioxole-5-ylthieno[3,2-d]pyrimidin-4-yl)-N^3-(4-(4-((2S)-bicyclo[2.2.1]heptan-2-yl)piperazin-1-yl)phenyl)-1H-1,2,4-triazole-3,5-diamine] |
|  | < 1 µM | Cc1csc2c(-n3nc(Nc4ccc(N5CCN([C@H]6CC7CCC6C7)CC5)cc4)nc3N)nc(-c3ccncc3)nc12 (stereo partly drawn) [Compound 237, 1-(7-methyl-2-pyridin-4-ylthieno[3,2-d]pyrimidin-4-yl)-N^3-(4-(4-((2S)-bicyclo[2.2.1]heptan-2-yl)piperazin-1-yl)phenyl)-1H-1,2,4-triazole-3,5-diamine] |
